From publication PMC9200803, “Design, synthesis, and biological evaluation of tetrahydroquinolinones and tetrahydroquinolines with anticancer activity” (Scientific Reports, 2022)

Assays:
A-549 cells = experiment: MTT cell viability assay, A-549; type: cell-based, human
Method: (§1) To evaluate the effects of the newly synthesized tetrahydroquinolin-2(1H)-one derivatives on cell viability, we treated human colon cancer cells HCT-116, human breast cancer cells MCF-7, and human non-small cell lung cancer cells A-549 with different concentrations of the compounds for 72 h. After incubation, the MTT (3-(4,5-dimethylthiazol-2-yl)-2,5-diphenyltetrazolium bromide) assay was performed and the cytotoxic potency of compounds (expressed in IC50) on the cells was determined in comparison to control cells treated with 1% of dimethyl sulfoxide (DMSO) (Table 1). […] We also compared the activity of 20d and 19b to the reference control drug Cisplatin, which is widely used in chemotherapy.
(§2) A-549 (CCL-185) and MCF-7 ([…]) cells were cultured in RPMI-1640 medium, while HCT-116 (CVCL-427), (hMLH1)-deficient (MMR^–) and hMLH1-proficient (MMR^+) RKO cells were cultured in McCoy’s 5A medium. The culture media were supplemented with 10% fetal bovine serum, 2 mM L-glutamine, and antibiotics (penicillin 62.6 µg/ml and streptomycin 40 µg/ml). Cultivation of cell lines was carried out at 37 °C under a humidified atmosphere containing 5% CO2, and the cultures were routinely screened for Mycoplasma contamination. A-549, MCF-7, and HCT-116 cells were obtained from American Type Culture Collection (ATCC), while RKO colon carcinoma cells were a kind gift of Dr Timothy Kinsella (Brown University, USA).
(§3) The viability of cells was determined in response to the newly synthesized compounds using the MTT (Sigma-Aldrich) assay. Briefly, cells were seeded into 96-well plates and allowed to attach overnight. Then, cells were exposed to various concentrations of compounds for 24, 48 or 72 h. Negative controls were treated with the same amount of DMSO solvent (1%). After treatment, the MTT solution (0.4 mg/ml) was added to each well and allowed to react with cells for 2–3 h at 37 °C. Next, the medium was removed, the formazan product formed was dissolved in 100 μl of DMSO, and the absorbance was determined at 540 nm using an ASYS UVM340 microplate reader (Biochrom Ltd.). The IC50 value, which represents the concentration of the compound required to inhibit cell growth by 50% compared to vehicle, was calculated using GraphPad Prism 8 software based on the curves plotting survival against dose averaged from at least three independent experiments.

HCT-116 cells [1] = experiment: Cell cycle distribution analysis by flow cytometry (PI staining); type: cell-based, human; settings: HCT-116, 24 to 72 h, vs vehicle
Method: Based on their antiproliferative activity, 20d and 19b were evaluated for their effect on cell cycle phase distribution and DNA content by flow cytometry.
HCT-116 and A-549 cells were seeded into culture plates and allowed to attach overnight. Then, cells were incubated with the investigated compounds for the indicated time points. After incubation, the harvested cells were fixed with ice-cold 75% ethanol and stored overnight at − 20 °C. Next, cells were rehydrated with PBS in ice for 15 min and washed twice in PBS. Finally, cells were stained with […] propidium iodide (PI) and […] RNase A in PBS for 30 min at room temperature. Cell cycle distribution was determined using a Guava easyCyte 8 flow cytometer (Merck Millipore) and FlowJo v10 software.

MCF-7 cells = experiment: MTT cell viability assay, MCF-7; type: cell-based, human; settings: Homo sapiens, MCF7, 72 h, IC50 ± SD
Method: as §1, §2, §3

HCT-116 cells [2] = experiment: MTT cell viability assay, HCT-116; type: cell-based, human; settings: MTT, 72 h, IC50 ± SD
Method: as §1, §2, §3

HEK293 cells = experiment: MTT cell viability assay, HEK293; type: cell-based, human; settings: Homo sapiens, HEK293, IC50 ± SD
HCT-116 cells [3] = experiment: Colony formation (clonogenic) assay; type: cell-based, human; settings: HCT-116, 24 h pretreatment, 9 days culture
Method: A total of 500 HCT-116 cells/well was seeded into six-well plates. After attachment, cells were pretreated with DMSO (1%) or various concentrations of 20d and 19b for 24 h. Following incubation, the medium was changed, and cells were cultured for 9 days. After culturing, cells were washed with phosphate-buffered saline (PBS), fixed with 100% methanol for 30 min, and then stained with 0.5% crystal violet for 15 min. The plates were air-dried, and visible colonies were counted using ImageJ software. The percentage viability of cells was calculated in comparison to the control.

COc1cc(-c2ccccc2)c2c(n1)C(OC(=O)Nc1ccc([N+](=O)[O-])cc1)CCC2 (stereo not shown) [Compound 19b, (2-methoxy-4-phenyl-5,6,7,8-tetrahydroquinolin-8-yl) N-(4-nitrophenyl)carbamate]
fold lower concentration than Cisplatin suppressing 50% of cell viability (A-549 cells; A-549): 5 fold | IC50 (A-549 cells; Homo sapiens, A549, MTT, 72 h, IC50 ± SD): 15.7 ± 2.56 µM | increase in the number of cells in the G0/G1 phase (HCT-116 cells [1]): < 14% | number of cells in the S-phase (HCT-116 cells [1]): substantial decrease | melting point: 183 to 185 °C | IC50 (MCF-7 cells): > 50 µM | IC50 (HCT-116 cells [2]; Homo sapiens, HCT-116, 72 h): ~13 µM | IC50 (HCT-116 cells [2]): 13.5 ± 0.2 µM | IC50 (HEK293 cells): > 50 µM | formation of colonies (HCT-116 cells [3]): effectively inhibited the formation of colonies in a concentration-dependent manner
